Values after ≈ are worked out from the molar mass of the structure shown.

The experiment deals with M. tuberculosis H37Rv growth inhibition. Kind of experiment: Mycobacterium tuberculosis H37Rv growth inhibition, putative kinase inhibitor library, confirmatory dose response (AID 2842).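 Note: bacteria incubated one week before Alamar blue readout.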

Regarding `Cc1ccc(-c2nnc(NC(=O)C3CCCCC3)o2)c(C)c1`, the IC90 (as a rule, the concentration needed for an effect of 90%) was 8.75 µg/mL (≈ 29.2 µM). In the case of `CCOC(CNc1ncnc2c1cnn2-c1ccc(C)cc1)OCC` it was 25.6 µg/mL (≈ 74.9 µM); in that of `CCCCOc1cccc(C(=O)Nc2nnc(-c3ccc(C)cc3C)o2)c1`, 2.63 µg/mL (≈ 7.2 µM). Under `Cc1ccc(C)c(-c2nnc(NC(=O)c3cc([N+](=O)[O-])ccc3Cl)o2)c1` stands less than 0.2 µg/mL. Under `N#Cc1ccc(C(=O)Nc2nnc(-c3cccnc3)o2)cc1` stands 53.3 µg/mL (≈ 183 µM); under `COc1ccc(Cn2cc3c(-c4ccccc4)nnc-3c3cc(OC)c(OC)cc32)cc1`, 6.64 µg/mL (≈ 15.6 µM).

Consider `Cc1ccc(C)c(-c2nnc(NC(=O)C3COc4ccccc4O3)o2)c1` (stereo not given), for which the IC90 was 1.18 µg/mL (≈ 3.36 µM). In the case of `Cc1nc2c(ccc3nc(NC(=O)c4ccc(C(C)(C)C)cc4)sc32)s1` it was 3.24 µg/mL (≈ 8.49 µM); in that of `COc1cccc2sc(Nc3nc4c(s3)CCCC4)nc12`, 5.82 µg/mL (≈ 18.3 µM). Under `COc1cc(-c2nnc(NC(=O)C(C)(C)C)o2)cc(OC)c1OC` stands 14.5 µg/mL (≈ 43.1 µM); under `N#Cc1c(NC(=O)c2cc(Cl)ccc2Cl)sc2c1CCN(Cc1ccccc1)C2`, 12.3 µg/mL (≈ 27.8 µM); under `O=C1N/C(=N\N=C\c2ccccc2O)SC1Cc1cc(Cl)ccc1Cl` (stereo not given), 4.52 µg/mL (≈ 11.5 µM). In the case of `Cc1ccc(Nc2nc(N3CCN(Cc4ccccc4)CC3)nc3nccnc23)cc1Cl` it was 2.67 µg/mL (≈ 5.99 µM). `O=C(Nc1nnc(-c2cccs2)o1)c1ccc2c(c1)CCCC2`: the IC90 is 37.6 µg/mL (≈ 116 µM). Under `COc1ccc(CNC(=O)c2c(C)oc3c2C(=O)c2ccccc2C3=O)cc1` stands 1.1 µg/mL (≈ 2.93 µM). Under `CCc1cccc2sc(N(CCCn3ccnc3)C(=O)c3ccc(OC)c(OC)c3)nc12` stands 13.9 µg/mL (≈ 30.9 µM). Under `Cc1ccc(C)c(-c2nnc(NC(=O)c3cccc([N+](=O)[O-])c3)o2)c1` stands 29.6 µg/mL (≈ 87.4 µM); under `Cc1nc2c(ccc3nc(NC(=O)c4ccco4)sc32)s1`, 35 µg/mL (≈ 111 µM). On to `COC(=O)c1c2c(n3ccc(C)cc13)C(=O)c1ccccc1C2=O`, for which the IC90 was 0.35 µg/mL (≈ 1.1 µM).

Consider `CC(C)(C)c1ccc(C(=O)N2CC(=O)Nc3ccc(Cl)cc3C2c2ccc(F)cc2)cc1` (stereo not given), for which the IC90 is 9.95 µg/mL (≈ 22.1 µM).

Consider `COc1ccc2nc(Nc3nc(C(C)(C)C)cs3)sc2c1`, for which the IC90 is 10.1 µg/mL (≈ 31.7 µM).

For `CCOC(CNc1ncnc2c1cnn2-c1ccc(C)c(C)c1)OCC`, the IC90 is 21.8 µg/mL (≈ 61.4 µM).

For the compound `CCCC(=O)Nc1nnc(-c2ccccc2)o1`, the IC90 is 22 µg/mL (≈ 95.2 µM).

For `COc1cccc2sc(Nc3nc4c(s3)CC(C)CC4)nc12` (stereo not given), the IC90 is 5.79 µg/mL (≈ 17.5 µM).

On to `Cc1cc(Nc2ccc(C)c(Cl)c2)n2ncc(-c3ccccc3)c2n1`, for which the IC90 is 3.35 µg/mL (≈ 9.6 µM). Under `O=C(Cc1cccc2ccccc12)Nc1nnc(-c2ccc(F)cc2)o1` stands 22.4 µg/mL (≈ 64.4 µM); under `O=C(Nc1nnc(-c2cccs2)o1)c1cc(-c2ccccc2)nc2ccccc12`, 0.53 µg/mL (≈ 1.33 µM); under `O=C(Nc1nnc(-c2cccs2)o1)c1nc2ccccc2s1`, 2.98 µg/mL (≈ 9.07 µM). In the case of `COc1ccccc1-c1nnc(NC(=O)CCc2ccccc2)o1` it was 6.99 µg/mL (≈ 21.6 µM); in that of `O=C(Nc1nnc(-c2ccc(Cl)s2)o1)c1c(F)cccc1F`, 3.8 µg/mL (≈ 11.1 µM). Under `O=C(c1ccc(Nc2nc(-c3ccccc3)c3cc(Br)ccc3n2)cc1)N1CCCC1` stands 21.1 µg/mL (≈ 44.6 µM); under `COc1cccc(-c2nnc(NC(=O)c3ccc(Cl)cc3)o2)c1`, 33.8 µg/mL (≈ 102 µM); under `Cc1ccc2nc(N(CCCn3ccnc3)C(=O)c3ccco3)sc2c1`, 0.48 µg/mL (≈ 1.31 µM). Regarding `O=C(NCC(c1cccs1)N1CCc2ccccc2C1)c1ccc2c(c1)OCO2` (stereo not given), the IC90 is 23.9 µg/mL (≈ 58.7 µM).

With `CC1=C(C(=O)Nc2cccc(Cl)c2)C(c2ccc(Br)cc2)NC(=O)N1` (stereo not given), the IC90 is 20.3 µg/mL (≈ 48.1 µM). In the case of `COc1cccc(-c2nnc(NC(=O)c3ccc4c(c3)CCCC4)o2)c1` it was 5.48 µg/mL (≈ 15.7 µM).

With `O=C(Nc1nc(-c2ccc3c(c2)OCCO3)cs1)c1cccc(C(F)(F)F)c1`, the IC90 is 13.9 µg/mL (≈ 34.3 µM).

As for `CCOc1ccc2c(c1)c1nnc(-c3ccc(OC)cc3)c-1cn2Cc1ccccc1F`, the IC90 is 4.73 µg/mL (≈ 11.1 µM). In the case of `CN1CCc2c(sc(NC(=O)c3ccc(C(C)(C)C)cc3)c2C(N)=O)C1` it was 12.7 µg/mL (≈ 34.2 µM).

Turning to `COc1ccc(-c2nnc(NC(=O)c3ccccc3Br)o2)cc1`, the IC90 is 82.2 µg/mL (≈ 220 µM). Under `COc1ccccc1Cn1cc2c(-c3ccc(Cl)cc3)nnc-2c2ccccc21` stands 8.89 µg/mL (≈ 22.2 µM).

Take `O=C(c1ccc(NC2=C(Cl)C(=O)N(Cc3ccccc3)C2=O)cc1)N1CCCCCC1`: the IC90 is 11.2 µg/mL (≈ 25.5 µM). Under `Cc1cccc(N2CCN(C(=O)CCCCCn3c(=O)[nH]c4ccsc4c3=O)CC2)c1C` stands 20.9 µg/mL (≈ 46 µM); under `O=C(Nc1nnc(-c2ccc3c(c2)CCCC3)o1)c1ccccc1Br`, less than 0.2 µg/mL. Consider `O=C(Nc1nnc(-c2ccc(F)cc2)o1)c1sc2ccccc2c1Cl`, for which the IC90 was 9.54 µg/mL (≈ 25.5 µM).

For the compound `O=C1NC(=S)NC(=O)C1=Cc1nc(-c2ccccc2Cl)n2ccccc12`, the IC90 was 10.8 µg/mL (≈ 28.2 µM). Consider `Cc1cc(C)c2nc(NNC(=O)c3cc(-c4cccs4)nc4ccccc34)sc2c1`, for which the IC90 was 24.6 µg/mL (≈ 57.2 µM). Take `Cc1ccc2sc(NNC(=O)C3COc4ccccc4O3)nc2c1C` (stereo not given): the IC90 was 0.88 µg/mL (≈ 2.48 µM). For `Cc1cccc(C(=O)Nc2nnc(-c3cc(Cl)ccc3Cl)o2)c1`, the IC90 was 32 µg/mL (≈ 91.9 µM). In the case of `CCOC(=O)c1ccc2nc(Nc3nc4ccc(OC)cc4s3)sc2c1` it was 29 µg/mL (≈ 75.3 µM).

The values are drawn from PubChem BioAssay AID2842 (Southern Research Institute, 2010).
